In PMC8879095, “UHPLC-MS/MS Analysis of Antibiotics Transfer and Concentrations in Porcine Oral Fluid after Intramuscular Application” (Pharmaceuticals, 2022):
Where two headings read alike, the source gives them in different places.

What was measured:
[1] = cited from earlier work
[2] = Antibiotic concentrations in porcine oral fluid after intramuscular application (UHPLC-MS/MS); format: in vivo; settings: pigs, i.m.; for concentration at 1 d / concentration at 2 d / concentration at 3 d / concentration at 4 d / concentration at 5 d / concentration at 6 d / concentration at 7 d / concentration at 8 d / concentration at 9 d / concentration at 10 d / concentration at 11 d / concentration at 12 d / concentration at 13 d / concentration at 14 d / concentration at 15 d / concentration at 16 d / concentration at 17 d / concentration at 18 d / concentration at 19 d / concentration at 20 d / concentration at 21 d / concentration at 22 d / concentration at 23 d / concentration at 24 d / concentration at 25 d / concentration at 26 d / concentration at 27 d / concentration at 28 d / concentration at 29 d / concentration at 30 d: male, (Landrace × Yorkshire) × Duroc crossbred (DanBred sows), pig, intramuscular; for concentration at 1 d / concentration at 2 d / concentration at 3 d / concentration at 4 d / concentration at 5 d / concentration at 6 d / concentration at 7 d / concentration at 8 d / concentration at 9 d / concentration at 10 d / concentration at 11 d / concentration at 12 d / concentration at 13 d / concentration at 14 d / concentration at 15 d / concentration at 16 d / concentration at 17 d / concentration at 18 d / concentration at 19 d / concentration at 20 d / concentration at 21 d / concentration at 22 d / concentration at 23 d / concentration at 24 d / concentration at 25 d / concentration at 26 d / concentration at 27 d / concentration at 28 d / concentration at 29 d / concentration at 30 d / concentration in oral fluid at withdrawal period / Avarage Concentrations in oral fluid: oral fluid; for concentration in oral fluid at withdrawal period: at the end of the withdrawal period for tissues of each drug (Table 3); for distribution to oral fluid: conclusion in words
Method: All animals were born in the sow farm (8000 DanBred sows) located in Northern Poland, after crossing ♀(♂Landrace × ♀Yorskshire) × ♂Duroc. Piglets were weaned after 4 weeks of lactation with an average weight of 6 kg and then moved to the weaner stable (23,000 weaners). After the next 7 weeks, animals were transported to the 9000-places fattening farm with an average body weight of 28 kg, where the trial was performed. All farms in the aforementioned three-phase model used weekly batches and an all-in all-out system. Specialist veterinary and production management care were provided in each location.
For the purpose of the study, 240 immunologically castrated boars were divided into 8 groups, 30 animals in each pen. For the control group, 30 pigs were used in separate pens. Their initial body weight was between 40 and 60 kg. Pigs were housed at 20–25 °C. Fatteners were fed ad libitum with antimicrobial-free water and feed provided by feeders throughout the study. Before the experiment, water and feed were checked for antimicrobials, and no antimicrobial treatments were administered to these pigs before. All animals in one pen were treated due to the same health issue using disposable needles and the same drug and dosage. Pens were separated from each other with concrete walls. The drugs and dosage administered to each experimental group with an indication of withdrawal period for tissues are listed in Table 3. The oral fluid samples were collected using three cotton ropes (70 cm length with 1 cm diameter) in each pen suspended separately for 25 min on the front wall of the pen with bottoms at the pigs’ shoulder height, away from water and feed.
The research material was one pooled sample of oral fluid from 10 pigs, in triplicate, per pen. Ropes were removed immediately after collection. The first oral fluid sample was collected 24 h after the first injection. The collection of each subsequent sample took place at the same time (11:30 A.M.) for 35 consecutive days. Additionally, oral fluid samples were collected from pigs not treated with any antibiotics. Oral fluid from each pen was pooled into one 50-mL Falcon plastic tube and centrifuged at 9447× rcf for 15 min. Centrifuged material was transferred to a 15 mL plastic tube and frozen at −20 °C until analysis.
Before the analysis, the oral fluid samples were centrifuged at 9447× rcf. Next, an aliquot (1 mL) of oral fluid was placed into a 2 mL polypropylene centrifuge tube, and the 30 µL of the internal standard at the concentration of 2 µg/mL was added. For the extraction of analysed antibiotics, 600 µL of 0.5% formic acid was added, vortexed for 30 s and centrifuged for 10 min at 9447× rcf. Then, the supernatant was filtered through a […] PVDF filter into an amber glass vial before chromatographic analysis.
The mass spectrometry detection was operated in the positive ESI mode with multiple reaction monitoring (MRM).

[3] = first day of medication (abstract), read-out: concentration in oral fluid on the first day of medication
[4] = time 1 d (24 h after first injection), treatment period, read-out: Avarage Concentrations in oral fluid
[5] = treatment period, read-out: Avarage Concentrations in oral fluid
[6] = time 4 d, posttreatment, read-out: Avarage Concentrations in oral fluid
[7] = posttreatment, read-out: Avarage Concentrations in oral fluid
[8] = time 30 d, posttreatment, read-out: Avarage Concentrations in oral fluid
[9] = time 1 d (24 h after first injection), treatment period

Compound | concentration at 1 d [2, 3] [ng/g] | concentration at 1 d [2, 4] [ng/mL] | concentration at 2 d [2, 5] [ng/mL] | concentration at 3 d [2, 5] [ng/mL] | concentration at 4 d [2, 6] [ng/mL] | concentration at 5 d [2, 7] [ng/mL] | concentration at 6 d [2, 7] [ng/mL] | concentration at 7 d [2, 7] [ng/mL] | concentration at 8 d [2, 7] [ng/mL] | concentration at 9 d [2, 7] [ng/mL] | concentration at 10 d [2, 7] [ng/mL] | concentration at 11 d [2, 7] [ng/mL] | concentration at 12 d [2, 7] [ng/mL] | concentration at 13 d [2, 7] [ng/mL] | concentration at 14 d [2, 7] [ng/mL] | concentration at 15 d [2, 7] [ng/mL] | concentration at 16 d [2, 7] [ng/mL] | concentration at 17 d [2, 7] [ng/mL] | concentration at 18 d [2, 7] [ng/mL] | concentration at 19 d [2, 7] [ng/mL] | further results
COc1ncnc(NS(=O)(=O)c2ccc(N)cc2)c1OC [SDX, sulfadoxine] | 22300 | 22300 | 5860 ± 1160 | 4570 ± 766 | 4010 | 5780 ± 788 | 4070 ± 669 | 310 ± 98 | 392 ± 88 | 386 ± 72 | 134 ± 49 | 247 ± 62 | 74.8 ± 21 | 68 ± 16 | 77.4 ± 18 | 69.8 ± 14 | 78.4 ± 12 | 47 ± 18 | 44.2 ± 16 | 58.4 ± 11 | pKa ([1]; weak organic acid): 6.16; concentration at 20 d [2, 7]: 76.4 ± 14 ng/mL; concentration at 21 d [2, 7]: 21.4 ± 7.3 ng/mL; concentration at 22 d [2, 7]: 25.3 ± 6.9 ng/mL; concentration at 23 d [2, 7]: 15.9 ± 7.2 ng/mL; concentration at 24 d [2, 7]: 37 ± 5.4 ng/mL; concentration at 25 d [2, 7]: 31.5 ± 6.3 ng/mL; concentration at 26 d [2, 7]: 19.1 ± 4.2 ng/mL; concentration at 27 d [2, 7]: 19.3 ± 3.7 ng/mL; concentration at 28 d [2, 7]: 35 ± 8.1 ng/mL; concentration at 29 d [2, 7]: 30.4 ± 7.6 ng/mL; concentration at 30 d [2, 8]: 23 ng/mL; concentration in oral fluid at withdrawal period [2]: 247 µg/L; Avarage Concentrations in oral fluid [2, 9]: 22,300 ± 3555 µg/L; Avarage Concentrations in oral fluid ([2]; time 4 d, posttreatment): 4010 ± 601 µg/L; Avarage Concentrations in oral fluid ([2]; time 30 d, posttreatment): 23.0 ± 6.2 µg/L; distribution to oral fluid [2]: high distribution
COc1cc(Cc2cnc(N)nc2N)cc(OC)c1OC [TRMP, trimethoprim] | 14100 | 14100 | 2810 ± 556 | 1810 ± 311 | 1030 ± 221 | 1400 ± 255 | 1280 ± 198 | 264 ± 73 | 125 ± 41 | 128 ± 38 | 36.4 ± 15 | 67.1 ± 20 | 25.2 ± 9.6 | 22 ± 8.7 | 22.1 ± 6.4 | 31.6 ± 11 | 24.2 ± 8.2 | 18.9 ± 4.8 | 13 ± 3.6 | 42 ± 14 | concentration at 20 d [2, 7]: 36.4 ± 10 ng/mL; concentration at 21 d [2, 7]: 10.2 ± 4.4 ng/mL; concentration at 22 d [2, 7]: 46.4 ± 16 ng/mL; concentration at 23 d [2, 7]: 6.9 ± 2.4 ng/mL; concentration at 24 d [2, 7]: 19.4 ± 5.5 ng/mL; concentration at 25 d [2, 7]: 17.8 ± 4.1 ng/mL; concentration at 26 d [2, 7]: 15.9 ± 3.6 ng/mL; concentration at 27 d [2, 7]: 10.4 ± 2.9 ng/mL; concentration at 28 d [2, 7]: 16.5 ± 6.2 ng/mL; concentration at 29 d [2, 7]: 21.2 ± 9.4 ng/mL; concentration at 30 d [2, 8]: 22.4 ng/mL; concentration in oral fluid at withdrawal period [2]: 67.1 µg/L; Avarage Concentrations in oral fluid [2, 9]: 14,100 ± 2556 µg/L; Avarage Concentrations in oral fluid ([2]; time 30 d, posttreatment): 22.4 ± 9.1 µg/L; distribution to oral fluid [2]: high distribution
C=C[C@]1(C)C[C@@H](OC(=O)CSCCN(CC)CC)[C@]2(C)[C@H](C)CC[C@]3(CCC(=O)[C@H]32)[C@@H](C)[C@@H]1O [TIAM, tiamulin] | 7600 | 7600 | 2520 ± 355 | 2460 ± 311 | 1560 | 1540 ± 233 | 2960 ± 299 | 2570 ± 254 | 875 ± 156 | 567 ± 111 | 621 ± 124 | 279 ± 66 | 254 ± 69 | 138 ± 43 | 269 ± 71 | 156 ± 41 | 279 ± 68 | 182 ± 49 | 176 ± 52 | 202 ± 45 | pKa [1]: 7.6; concentration at 20 d [2, 7]: 133 ± 36 ng/mL; concentration at 21 d [2, 7]: 148 ± 32 ng/mL; concentration at 22 d [2, 7]: 220 ± 44 ng/mL; concentration at 23 d [2, 7]: 146 ± 29 ng/mL; concentration at 24 d [2, 7]: 310 ± 55 ng/mL; concentration at 25 d [2, 7]: 193 ± 33 ng/mL; concentration at 26 d [2, 7]: 66.4 ± 12 ng/mL; concentration at 27 d [2, 7]: 54.3 ± 14 ng/mL; concentration at 28 d [2, 7]: 35.8 ± 17 ng/mL; concentration at 29 d [2, 7]: 40.6 ± 21 ng/mL; concentration at 30 d [2, 8]: 46.9 ng/mL; Avarage Concentrations in oral fluid [2, 9]: 7600 ± 1055 µg/L; Avarage Concentrations in oral fluid ([2]; time 4 d, posttreatment): 1560 ± 225 µg/L; Avarage Concentrations in oral fluid ([2]; time 30 d, posttreatment): 46.9 ± 19 µg/L; distribution to oral fluid [2]: high distribution
